Source: US20080033045A1, “TREATMENT OF PSYCHIATRIC DISORDERS” (Myriad Genetics, Incorporated, priority 2006, published 2008)

Test system: Alzheimer's disease patients
Test: Clinical trial in Alzheimer's disease patients, analysis of psychiatric disorder events (MedDRA adverse events)
Type: in vivo, human
Method: A clinical trial with (R)-2-(2-fluoro-4-biphenylyl)propionic acid (USAN name of tarneflurbil) was conducted according to the method disclosed in U.S. patent application Ser. No. 10/889,971, filed Jul. 12, 2004, (US publication no. 20050042284) which is expressly incorporated herein by reference in its entirety. In this clinical trial, Alzheimer's disease patients were treated with placebo, 400 mg tarenflurbil twice daily, or 800 mg tarenflurbil twice daily for one year. Analysis of the psychiatric disorder events yielded the following results.

[1] = 400 mg BID for one year, N = 40
[2] = 800 mg BID for one year, N = 50

C[C@@H](C(=O)O)c1ccc(-c2ccccc2)c(F)c1 [tarenflurbil, (R)-2-(2-fluoro-4-biphenylyl)propionic acid]
Abnormal behaviour, number [1]: 0
Abnormal dreams, number [1]: 0
Aggression, number [1]: 0
Agitation, number [1]: 2
Agitation, percent of N [1]: (5%)
Anger, number [1]: 1
Anger, percent of N [1]: (2.5%)
Anxiety, number [1]: 2
Anxiety, percent of N [1]: (5%)
Apathy, number [1]: 0
Confusional state, number [1]: 4
Confusional state, percent of N [1]: (10%)
Delusion, number [1]: 1
Delusion, percent of N [1]: (2.5%)
Depression, number [1]: 1
Depression, percent of N [1]: (2.5%)
Hallucination, number [1]: 0
Hallucination, visual, number [1]: 1
Hallucination, visual, percent of N [1]: (2.5%)
Insomnia, number [1]: 0
Libi do increased, number [1]: 1
Libi do increased, percent of N [1]: (2.5%)
Mood altered, number [1]: 0
Mood swings, number [1]: 1
Mood swings, percent of N [1]: (2.5%)
Nightmare, number [1]: 0
Number of Patients With at Least One Adverse Event (Psychiatric Disorder) [1]: 12
Paranoia, number [1]: 1
Paranoia, percent of N [1]: (2.5%)
Patients With at Least One Adverse Event (Psychiatric Disorder), percent of N [1]: (30%)
Psychotic disorder, number [1]: 1
Psychotic disorder, percent of N [1]: (2.5%)
Sleep disorder, number [1]: 1
Sleep disorder, percent of N [1]: (2.5%)
Total Number of Adverse Events (Psychiatric Disorders, MedDRA) [1]: 17
Abnormal behaviour, number [2]: 0
Abnormal dreams, number [2]: 0
Aggression, number [2]: 0
Agitation, number [2]: 1
Agitation, percent of N [2]: (2%)
Anger, number [2]: 0
Anxiety, number [2]: 2
Anxiety, percent of N [2]: (4%)
Apathy, number [2]: 0
Confusional state, number [2]: 0
Delusion, number [2]: 0
Depression, number [2]: 4
Depression, percent of N [2]: (8%)
Hallucination, number [2]: 0
Hallucination, visual, number [2]: 0
Insomnia, number [2]: 1
Insomnia, percent of N [2]: (2%)
Libi do increased, number [2]: 0
Mood altered, number [2]: 1
Mood altered, percent of N [2]: (2%)
Mood swings, number [2]: 0
Nightmare, number [2]: 1
Nightmare, percent of N [2]: (2%)
Number of Patients With at Least One Adverse Event (Psychiatric Disorder) [2]: 7
Paranoia, number [2]: 0
Patients With at Least One Adverse Event (Psychiatric Disorder), percent of N [2]: (14%)
Psychotic disorder, number [2]: 0
Sleep disorder, number [2]: 0
Total Number of Adverse Events (Psychiatric Disorders, MedDRA) [2]: 10
number of psychiatric events (incidence) (treatment group, statistical analysis, p=0.02): reduce the incidence of psychiatric events
time to progression to psychiatric events (onset) (treatment group, statistical analysis, p=0011): delay the onset of
